The term EC50 denotes the concentration at which the effect is half-maximal.

In the experiment the target is T1, human GPR40 (Homo sapiens, UniProt O14842).
T1 construct: expressed in transfected cells
Kind of experiment: Inositol Phosphate Turnover (IP1) Assay. Type of experiment: cell-based. The following applies: HEK cells stably expressing human GPR40, CisBio IP-One kit, 60 minutes at 37 degrees. An outline of the steps:
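HEK cells stably expressing GPR40, plated 16 h, then exposed to compound in stimulation buffer for 60 min at 37 °C. IP1 accumulation read by HTRF IP-One detection after 60 min at RT.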

Each structure is given as a SMILES string. Like-named read-outs stand apart in the source and are kept apart here.

T1 sequence (O14842 whole entry): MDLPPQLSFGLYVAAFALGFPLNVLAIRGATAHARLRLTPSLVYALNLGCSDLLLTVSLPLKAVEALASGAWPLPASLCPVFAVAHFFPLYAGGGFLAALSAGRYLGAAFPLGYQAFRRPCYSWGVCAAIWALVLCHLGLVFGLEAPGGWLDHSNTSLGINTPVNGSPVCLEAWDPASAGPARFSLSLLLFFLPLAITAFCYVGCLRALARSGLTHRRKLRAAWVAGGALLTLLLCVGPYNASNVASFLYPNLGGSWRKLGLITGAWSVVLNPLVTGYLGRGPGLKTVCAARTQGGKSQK

As to `CC(c1cc(C(F)(F)F)cc(Cl)c1F)N1CCC2(CCc3ccc([C@H](C4CC4)[C@H](C)C(=O)O)cc3O2)CC1` (single isomer, unassigned) [Example 108, (2S,3R)-3-(1′-((R or S)-1-(3-chloro-2-fluoro-5-(trifluoromethyl)phenyl)ethyl)spiro-[chroman-2,4′-piperidin]-7-yl)-3-cyclopropyl-2-methylpropanoic Acid], where the note is “Human IP1 EC50 (nM)”, the response was half-maximal at 15.8 nM (EC50).

Take `C[C@H](C(=O)O)[C@H](c1ccc2c(c1)OC1(CC2)CCN(c2ccc3c(c2)c(C(F)(F)F)nn3C)CC1)C1CC1` [Example 38, (2S,3R)-3-cyclopropyl-2-methyl-3-(1′-(1-methyl-3-(trifluoromethyl)-1H-indazol-5-yl)spiro[chroman-2,4′-piperidin]-7-yl)propanoic acid]: the EC50 (read-out: Human IP1 EC50) is 506 nM.

With `Cc1cscc1-c1ccc(OC(F)(F)F)c(C(C)N2CCC3(CCc4ccc([C@H](C5CC5)[C@H](C)C(=O)O)cc4O3)CC2)c1` (stereo partly drawn) [Example 119], the EC50 (read-out: Human IP1 EC50) came to 15 nM.

Take `Cc1noc(C)c1-c1ccc(OC(F)(F)F)c(C(C)N2CCC3(CCc4ccc([C@H](C5CC5)[C@H](C)C(=O)O)cc4O3)CC2)c1` (stereo partly drawn) [Example 121, (2S,3R)-3-cyclopropyl-3-(1′-(1-(5-(3,5-dimethylisoxazol-4-yl)-2-(trifluoro-methoxy)phenyl)ethyl)spiro [chroman-2,4′-piperidin]-7-yl)-2-methyl-propanoic acid]: the EC50 (read-out: Human IP1 EC50) turned out to be 110 nM.

For the compound `C[C@H](C(=O)O)[C@H](c1ccc2c(c1)OC1(CC2)CCN(c2ccnc(C(F)(F)F)n2)CC1)C1CC1` [Example 56, sodium (2S3R)-3-cyclopropyl-2-methyl-3-(1′-(2-(trifluoromethyl)pyrimidin-4-yl)spiro[chroman-2,4′-piperidin]-7-yl)propanoate], the EC50 (read-out: Human IP1 EC50) came to 856 nM.

Consider `CC(c1cc(C(F)(F)F)cc(C(F)(F)F)c1)N1CCC2(CCc3ccc([C@H](C4CC4)[C@H](C)C(=O)O)cc3O2)CC1` (stereo partly drawn) [Example 54, (2S,3R)-3-(1′-(1-(3,5-bis(trifluoromethyl)phenyl)ethyl)spiro[chroman-2,4′-piperidin]-7-yl)-3-cyclopropyl-2-methylpropanoic Acid], for which, for the setting “read-out: Human IP1 EC50”, the EC50 was determined as 6.47 nM.

With `C[C@H](NC1CC2(CCc3ccc([C@H](C4CC4)[C@H](C)C(=O)O)cc3O2)C1)c1cc(C(F)(F)F)ccc1C(F)(F)F` (single isomer, unassigned) [Example 94], the EC50 (read-out: Human IP1 EC50) turned out to be 2.62 nM.

Regarding `CCCn1cc(-c2ccc(OC(F)(F)F)c(C(C)N3CCC4(CCc5ccc([C@H](C6CC6)[C@H](C)C(=O)O)cc5O4)CC3)c2)cn1` (single isomer, unassigned) [Example 113, sodium (2S,3R)-3-cyclopropyl-2-methyl-3-(1′-S or R)-1-(5-(1-propyl-1H-pyrazol-4-yl)-2-(trifluoromethoxy)phenyl)eth-yl)spiro[chroman-2,4′-piperidin]-7-yl)propanoate], the EC50 (read-out: Human IP1 EC50) was found to be 579 nM.

On to `C[C@H](C(=O)O)[C@H](c1ccc2c(c1)OC1(CC2)[C@@H]2CC[C@H]1CN([C@H](C)c1cc(C(F)(F)F)ccc1C(F)(F)F)C2)C1CC1` (single isomer, unassigned) [Example 81], for which, where the note is “read-out: Human IP1 EC50”, the EC50 came out at 102 nM.

Consider `C[C@H](C(=O)O)[C@H](c1ccc2c(c1)OC1(CC2)CCN(S(=O)(=O)c2cc(C(F)(F)F)ccc2C(F)(F)F)CC1)C1CC1` [Example 23, (2S,3R)-3-(1′-((2,5-bis(trifluoromethyl)phenyl)sulfonyl)spiro[chroman-2,4′-piperidin]-7-yl)-3-cyclopropyl-2-methylpropanoic Acid], for which the EC50 (read-out: Human IP1 EC50) was 14.3 nM.

Take `C[C@H](C(=O)O)[C@H](c1ccc2c(c1)OC1(CC2)CCC(Nc2cc(C(F)(F)F)ccc2C(F)(F)F)CC1)C1CC1` (single isomer, unassigned) [Example 67]: the EC50 (read-out: Human IP1 EC50) was 1.12 nM.

With `CC(c1cc(C(F)(F)F)ccc1C1CC1)N1CCC2(CCc3ccc([C@H](C4CC4)[C@H](C)C(=O)O)c(F)c3O2)CC1` (single isomer, unassigned) [Example 11, sodium (2S,3R)-3-cyclopropyl-3-(1′-((R or S)-1-(2-cyclopropyl-5-(trifluoromethyl)-phenyl)ethyl)-8-fluorospiro[chroman-2,4′-piperidin]-7-yl)-2-methylpropanoate], the EC50 (read-out: Human IP1 EC50) is 0.434 nM.

For the compound `C[C@H](C(=O)O)[C@H](c1ccc2c(c1)OC1(CC2)CC(N(C)c2ncccc2C(F)(F)F)C1)C1CC1` (stereo partly drawn) [Example 89, (2S,3R)-3-cyclopropyl-2-methyl-3-(3′-(methyl(3-(trifluoromethyl)pyridin-2-yl)amino)spiro[chroman-2,1′-cyclobutan]-7-yl)propanoic Acid], the EC50 (read-out: Human IP1 EC50) came to 13.1 nM.

In the case of `C[C@H](C(=O)O)[C@H](c1ccc2c(c1)OC1(CC2)CCN(S(=O)(=O)c2ccc(C(F)(F)F)cc2Cl)CC1)C1CC1` [Example 26, (2S,3R)-3-(1′-((2-chloro-4-(trifluoromethyl)-phenyl)sulfonyl)spiro [chroman-2,4′-piperidin]-7-yl)-3-cyclopropyl-2-methylpropanoic acid], the EC50 (read-out: Human IP1 EC50) came out at 97.8 nM.

For the compound `CC(c1ncccc1C(F)(F)F)N1CCC2(CCc3ccc([C@H](C4CC4)[C@H](C)C(=O)O)cc3O2)CC1` (single isomer, unassigned) [Example 44, (2S,3R)-3-cyclo-propyl-2-methyl-3-(1′-((R or S)-1-(3-(trifluoromethyl)pyridin-2-yl)ethyl)spiro-[chroman-2,4′-piperidin]-7-yl)propanoic acid], the EC50 (read-out: Human IP1 EC50) came out at 311 nM.

Consider `CC(c1cc(-c2ccoc2)ccc1OC(F)(F)F)N1CCC2(CCc3ccc([C@H](C4CC4)[C@H](C)C(=O)O)cc3O2)CC1` (single isomer, unassigned) [Example 117, (2S,3R)-3-cyclopropyl-3-(1′-((R or S)-1-(5-(furan-3-yl)-2-(trifluoro-methoxy)-phenyl)ethyl)spiro[chroman-2,4′-piperidin]-7-yl)-2-methylpropanoic acid], for which the EC50 (read-out: Human IP1 EC50) turned out to be 36.9 nM.

For `C[C@H](C(=O)O)[C@H](c1ccc2c(c1)OC1(CC2)CCN(Cc2cc(C3CC3)ccc2OC(F)(F)F)CC1)C1CC1` [Example 76, (2S,3R)-3-cyclopropyl-3-(1′-(5-cyclopropyl-2-(trifluoromethoxy)benzyl)spiro[chroman-2,4′-piperidin]-7-yl)-2-methylpropanoic Acid], for the setting “read-out: Human IP1 EC50”, the EC50 came to 11.7 nM.

In the case of `CC(c1cc(C2CC2)ccc1C(F)(F)F)N1CCC2(CCc3ccc([C@H](C4CC4)[C@H](C)C(=O)O)cc3O2)CC1` (single isomer, unassigned) [Example 57, (2S,3R)-3-cyclopropyl-3-(1′-((R or S)-1-(5-cyclopropyl-2-(trifluoromethyl)phenyl)-ethyl)-spiro[chroman-2,4′-piperidin]-7-yl)-2-methylpropanoic Acid], for the setting “read-out: Human IP1 EC50”, the EC50 amounted to 1.4 nM.

For the compound `C[C@H](C(=O)O)[C@H](c1ccc2c(c1)OC1(CCCN([C@@H](C)c3cc(C(F)(F)F)ccc3C(F)(F)F)C1)CC2)C1CC1` (single isomer, unassigned) [Example 75, (2S,3R)-3-((S or R)-1′-((S)-1-(2,5-bis (trifluoromethyl)phenyl)-ethyl)spiro[chroman-2,3′-piperidin]-7-yl)-3-cyclopropyl-2-methylpropanoic acid], the concentration for a half-maximal effect (EC50) (read-out: Human IP1 EC50) turned out to be 0.374 nM.

Consider `Cc1ccc(OC(F)(F)F)c(C(C)N2CCC3(CCc4ccc([C@H](C5CC5)[C@H](C)C(=O)O)cc4O3)CC2)c1` (mixture of isomers) [Example 112], for which the EC50 (read-out: Human IP1 EC50) came to 21.5 nM.

As for `C[C@H](C(=O)O)[C@H](c1ccc2c(c1)OC1(CC2)CCN(c2cc(C(F)(F)F)ccc2C(F)(F)F)CC1)C1CC1` [Example 59, (2S,3R)-3-(1′-(2,5-bis(trifluoromethyl)phenyl)spiro[chroman-2,4′-piperidin]-7-yl)-3-cyclopropyl-2-methylpropanoic Acid], the EC50 (read-out: Human IP1 EC50) amounted to 3.3 nM.

In the case of `C[C@H](C(=O)O)[C@H](c1ccc2c(c1)OC1(CC2)CCN(Cc2cc(C(F)(F)F)cc(Cl)c2F)CC1)C1CC1` [Example 24, (2S,3R)-3-(1′-(3-chloro-2-fluoro-5-(trifluoromethyl)benzyl)spiro[chroman-2,4′-piperidin]-7-yl)-3-cyclopropyl-2-methylpropanoic Acid], the EC50 (read-out: Human IP1 EC50) was determined as 11.2 nM.

As for `C[C@H](C(=O)O)[C@H](c1ccc2c(c1)OC1(CC2)CCN(c2cccnc2C(F)(F)F)CC1)C1CC1` [Example 22, sodium (2S,3R)-3-cyclopropyl-2-methyl-3-(1′-(2-(trifluoromethyl)pyridin-3-yl)spiro[chroman-2,4′-piperidin]-7-yl)propanoate], under “read-out: Human IP1 EC50”, the EC50 came out at 38.3 nM.

With `CC(c1cc(C#N)ccc1OC(F)(F)F)N1CCC2(CCc3ccc([C@H](C4CC4)[C@H](C)C(=O)O)cc3O2)CC1` (stereo partly drawn) [Example 123, (2S,3R)-3-(1′-(1-(5-cyano-2-(trifluoromethoxy)phenyl)ethyl)spiro[chroman-2,4′-piperidin]-7-yl)-3-cyclopropyl-2-methylpropanoic Acid], the EC50 (read-out: Human IP1 EC50) was 30.4 nM.

Regarding `CC(c1cc(F)cc(F)c1Cl)N1CCC2(CCc3ccc([C@H](C4CC4)[C@H](C)C(=O)O)cc3O2)CC1` (single isomer, unassigned) [Example 18], the EC50 (read-out: Human IP1 EC50) was determined as 46.1 nM.

As for `CC(c1cc(OC(F)(F)F)ccc1F)N1CCC2(CCc3ccc([C@H](C4CC4)[C@H](C)C(=O)O)cc3O2)CC1` (mixture of isomers) [Example 29, (2S,3R)-3-cyclopropyl-3-(1′-((RS)-1-(2-fluoro-5-(trifluoromethoxy)phenyl)ethyl)spiro[chroman-2,4′-piperidin]-7-yl)-2-methylpropanoic acid], the EC50 (read-out: Human IP1 EC50) is 115 nM.

Regarding `CC(c1cc(C(F)(F)F)ccc1C1CC1)N1CCC2(CCc3ccc([C@H](C4CC4)[C@H](C)C(=O)O)cc3O2)CC1` (single isomer, unassigned) [Example 15, sodium (2S,3R)-3-cyclo-propyl-3-(1′-((S or R)-1-(2-cyclopropyl-5-(trifluoromethyl)phenyl)ethyl)spiro[chroman-2,4′-piperidin]-7-yl)-2-methylpropanoate], the EC50 (read-out: Human IP1 EC50) turned out to be 5.9 nM.

These data come from patent US10968232B2 (Merck Sharp & Dohme Corp., priority 2016, dated 2021).
